Test system: Unknown protein yeast genes
Experiment: DNA chip mRNA expression in yeast, unknown protein yeast genes (Table 1)
Type: cell-based, Saccharomyces cerevisiae S288C
Description: Yeast (Saccharomyces cerevisiae S288C (α SUC2mal mel gap2 CUP1)) were incubated at 25° C. on YPD medium (yeast extract 1%, polypepton 2%, glucose 2%). One of toxic chemical substances was added to the cells at logarithmic growth phase, and the cells were further incubated for two hours. Cells were cultured without any chemical substance in the same condition, and were used as control. Concentrations of the chemical substances were defined to inhibit the growth of the yeast but not lead to death.
After completion of the incubation, the culture was centrifuged to collect the cells. To the cells, sodium acetate buffer (50 mM sodium acetate, 10 mM EDTA, 1% SDS) was added, and the mixture was shaken at 65° C. for five minutes, followed by returning to room temperature, and obtaining the supernatant, of which the procedures were repeated two times. To the supernatant, ½ amount of a solution of phenol/chloroform was added, and the mixture was centrifuged to give a supernatant, which was added with an equal amount of chloroform, and the mixture was centrifuged to give a supernatant. To the supernatant, an equal amount of isopropanol containing 0.3 M sodium acetate was added, and the mixture was allowed to stand at room temperature for 30 minutes, after which the mixture was centrifuged to give a sediment of the whole RNAs. Seventy % ethanol was added to the sediment, and the mixture was again centrifuged to give a sediment, which was then dried and dissolved in water. mRNA was isolated from the whole RNAs as followings. In view of the fact that a poly A chain is attached to the 3′ terminus of mRNA, a polynucleotide having a poly T structure which was immobilized on the surface of latex beads was used to trap the mRNA, and then the mRNA was washed and eluted with spine column (Oligotex-dT30<Super>mRNA Purification Kit, Takara). Reverse transcription of the mRNA was conducted with a reverse transcriptase (Super Script II Reverse Transcriptase; catalogue No. 18064-014, GibcoBRL) using fluorescence-labeled nucleotides to give cDNAs that were introduced with Cy3-dUTP or Cy5-dUTP during the reverse transcription.
The labeled cDNAs were dissolved in TE buffer (10mM Tris-HCl/1 mM EDTA, pH8.0), and the solution was dropped on the DNA chip containing the whole genes of yeast (DNA Chip Research Inc. Japan) so that the cDNAs were hybridized on the DNA chip at 65° C. for over 12 hours. The fluoresces intensity of the DNA chip was read with a scanner, and the ratio relative to the fluorescence intensity resulting from the absence of chemical substance was estimated as the following, which is shown in Tables 1 to 9: […]

Structure (SMILES): CCCCC[C@H](O)CC(=O)CCc1ccc(O)c(OC)c1 [(13), gingerol]
- The level of expressed mRNA in the presence of chemical substance/The level of expressed mRNA in the absence of chemical substance (yeast gene YAL018C): 1.3
- The level of expressed mRNA in the presence of chemical substance/The level of expressed mRNA in the absence of chemical substance (yeast gene YAL049C, incubated two hours with substance): 1.6
- The level of expressed mRNA in the presence of chemical substance/The level of expressed mRNA in the absence of chemical substance (yeast gene YAR031W): 3.3
- The level of expressed mRNA in the presence of chemical substance/The level of expressed mRNA in the absence of chemical substance (yeast gene YAR047C): 1.4
- The level of expressed mRNA in the presence of chemical substance/The level of expressed mRNA in the absence of chemical substance (yeast gene YAR064W): 1.1
- The level of expressed mRNA in the presence of chemical substance/The level of expressed mRNA in the absence of chemical substance (yeast gene YBL048W): 2.7
- The level of expressed mRNA in the presence of chemical substance/The level of expressed mRNA in the absence of chemical substance (yeast gene YBL049W): 3.9
- The level of expressed mRNA in the presence of chemical substance/The level of expressed mRNA in the absence of chemical substance (yeast gene YBL107C): 2.6
- The level of expressed mRNA in the presence of chemical substance/The level of expressed mRNA in the absence of chemical substance (yeast gene YBR012C): 2.1
- The level of expressed mRNA in the presence of chemical substance/The level of expressed mRNA in the absence of chemical substance (yeast gene YBR062C): 2.8
- The level of expressed mRNA in the presence of chemical substance/The level of expressed mRNA in the absence of chemical substance (yeast gene YBR124W): 0.9
- The level of expressed mRNA in the presence of chemical substance/The level of expressed mRNA in the absence of chemical substance (yeast gene YBR287W): 3.4
- The level of expressed mRNA in the presence of chemical substance/The level of expressed mRNA in the absence of chemical substance (yeast gene YCL056C): 1.3
- The level of expressed mRNA in the presence of chemical substance/The level of expressed mRNA in the absence of chemical substance (yeast gene YCR007C): 1.5
- The level of expressed mRNA in the presence of chemical substance/The level of expressed mRNA in the absence of chemical substance (yeast gene YCR013C): 3.9
- The level of expressed mRNA in the presence of chemical substance/The level of expressed mRNA in the absence of chemical substance (yeast gene YDL027C): 3.2
- The level of expressed mRNA in the presence of chemical substance/The level of expressed mRNA in the absence of chemical substance (yeast gene YDL046W): 1.5
- The level of expressed mRNA in the presence of chemical substance/The level of expressed mRNA in the absence of chemical substance (yeast gene YDL110C): 2.7
- The level of expressed mRNA in the presence of chemical substance/The level of expressed mRNA in the absence of chemical substance (yeast gene YDL169C): 3.7
- The level of expressed mRNA in the presence of chemical substance/The level of expressed mRNA in the absence of chemical substance (yeast gene YDR090C): 0.8
- The level of expressed mRNA in the presence of chemical substance/The level of expressed mRNA in the absence of chemical substance (yeast gene YDR128W): 1.1
- The level of expressed mRNA in the presence of chemical substance/The level of expressed mRNA in the absence of chemical substance (yeast gene YDR133C): 0.1
- The level of expressed mRNA in the presence of chemical substance/The level of expressed mRNA in the absence of chemical substance (yeast gene YDR210W): 2.3
- The level of expressed mRNA in the presence of chemical substance/The level of expressed mRNA in the absence of chemical substance (yeast gene YDR250C): 1.2
- The level of expressed mRNA in the presence of chemical substance/The level of expressed mRNA in the absence of chemical substance (yeast gene YDR366C): 0.8
- The level of expressed mRNA in the presence of chemical substance/The level of expressed mRNA in the absence of chemical substance (yeast gene YDR435C): 2.5
- The level of expressed mRNA in the presence of chemical substance/The level of expressed mRNA in the absence of chemical substance (yeast gene YDR476C): 2.8
- The level of expressed mRNA in the presence of chemical substance/The level of expressed mRNA in the absence of chemical substance (yeast gene YER037W): 3.0
- The level of expressed mRNA in the presence of chemical substance/The level of expressed mRNA in the absence of chemical substance (yeast gene YFL024C): 0.9
- The level of expressed mRNA in the presence of chemical substance/The level of expressed mRNA in the absence of chemical substance (yeast gene YFR003C): 2.5
- The level of expressed mRNA in the presence of chemical substance/The level of expressed mRNA in the absence of chemical substance (yeast gene YFR026C): 1.1
- The level of expressed mRNA in the presence of chemical substance/The level of expressed mRNA in the absence of chemical substance (yeast gene YGR035C): 2.1
- The level of expressed mRNA in the presence of chemical substance/The level of expressed mRNA in the absence of chemical substance (yeast gene YGR038W): 1.2
- The level of expressed mRNA in the presence of chemical substance/The level of expressed mRNA in the absence of chemical substance (yeast gene YGR110W): 3.6
- The level of expressed mRNA in the presence of chemical substance/The level of expressed mRNA in the absence of chemical substance (yeast gene YGR139W): 0.4
- The level of expressed mRNA in the presence of chemical substance/The level of expressed mRNA in the absence of chemical substance (yeast gene YGR237C, incubated two hours with substance): 1.6
- The level of expressed mRNA in the presence of chemical substance/The level of expressed mRNA in the absence of chemical substance (yeast gene YGR277C, incubated two hours with substance): 1.6
- The level of expressed mRNA in the presence of chemical substance/The level of expressed mRNA in the absence of chemical substance (yeast gene YHL006C): 1.1
- The level of expressed mRNA in the presence of chemical substance/The level of expressed mRNA in the absence of chemical substance (yeast gene YHR209W): 2.0
- The level of expressed mRNA in the presence of chemical substance/The level of expressed mRNA in the absence of chemical substance (yeast gene YIL127C): 0.4
- The level of expressed mRNA in the presence of chemical substance/The level of expressed mRNA in the absence of chemical substance (yeast gene YJL017W): 1.5
- The level of expressed mRNA in the presence of chemical substance/The level of expressed mRNA in the absence of chemical substance (yeast gene YJL037W): 1.1
- The level of expressed mRNA in the presence of chemical substance/The level of expressed mRNA in the absence of chemical substance (yeast gene YKL097C): 0.9
- The level of expressed mRNA in the presence of chemical substance/The level of expressed mRNA in the absence of chemical substance (yeast gene YKL107W): 1.9
- The level of expressed mRNA in the presence of chemical substance/The level of expressed mRNA in the absence of chemical substance (yeast gene YKR040C): 0.6
- The level of expressed mRNA in the presence of chemical substance/The level of expressed mRNA in the absence of chemical substance (yeast gene YKR075C): 3.8
- The level of expressed mRNA in the presence of chemical substance/The level of expressed mRNA in the absence of chemical substance (yeast gene YLR064W, incubated two hours with substance): 1.6
- The level of expressed mRNA in the presence of chemical substance/The level of expressed mRNA in the absence of chemical substance (yeast gene YLR297W): 0.8
- The level of expressed mRNA in the presence of chemical substance/The level of expressed mRNA in the absence of chemical substance (yeast gene YLR338W): 1.2
- The level of expressed mRNA in the presence of chemical substance/The level of expressed mRNA in the absence of chemical substance (yeast gene YLR392C): 1.4

Reference: patent US8192962B2, “Processes for detecting toxic substances” (Daikin Industries, Ltd., priority 2001, dated 2012)
